Experimental data published in patent publication US4780467A, “Esters of N-alkyl-nortropines and their quaternary derivatives having anti-bronchospastic activity, and pharmaceutical compositions containing them” (Laboratori Guidotti Spa, priority 1986, dated 1988).
Read-outs that look alike come from different tables or passages of the source.

What was measured:
[1] = tested on: bronchospasm induced by acetyl choline aerosol in guinea pig; assay: inhibition of bronchospasm induced by acetyl choline aerosol in awake guinea pig; format: in vivo; conditions: for ED50: Cavia porcellus, iv; for ED50, inhibition of bronchospasm induced by acetyl choline aerosol: i.v.
[2] = tested on: isolated trachea of guinea pig; assay: relaxation of isolated trachea of guinea pig precontracted with methacoline; conditions: Cavia porcellus, read-out: IC50, relaxing the contraction of the isolated trachea of guinea pig precontracted with methacoline
Description: The compounds of the invention have been pharmacologically studied by means of in vitro and in vivo tests, suitable to evidence the anti-bronchospastic properties of the compounds. […] To this action a remarkable anti-bronchospastic action in the tests in vivo corresponded after administration by i.v. and inhalatory route.

[3] = acute toxicity in the mouse; conditions: in vivo; for LD50: approximate value; for selectivity ratio: ratio os/i.p., read-out: LD50 os/i.p.
[4] = tested on: PAF-acether induced bronchospasm in guinea pig; assay: inhibition of PAF-acether induced bronchospasm in anestetized guinea pig; format: in vivo; conditions: for inhibition of PAF-acether induced bronchospasm (in words): up to 3 μmol/kg; for inhibition % of PAF-acether induced bronchospasm: guinea pig, i.v.
[5] = tested on: platelet aggregation (rabbit prp) from collagen; assay: platelet aggregation (rabbit prp) from collagen; format: cell-based; conditions: Oryctolagus cuniculus
[6] = tested on: platelet aggregation (rabbit prp) from PAF acether; assay: platelet aggregation (rabbit prp) from PAF-acether; format: cell-based; conditions: Oryctolagus cuniculus
[7] = tested on: platelet aggregation (rabbit prp) from arachidonic acid; assay: platelet aggregation (rabbit prp) from arachidonic acid; format: cell-based; conditions: Oryctolagus cuniculus
[8] = ip, read-out: approximate value of LD50, i.p.
[9] = po, os, read-out: approximate value of LD50, os

| Structure (SMILES) | ED50 [1] [µmol/kg] | IC50 [2] [nM] | also measured |
| --- | --- | --- | --- |
| CCCN1[C@@H]2CC[C@H]1C[C@@H](OC(=O)C1CCCC=C1c1ccccc1)C2 (stereo partly drawn) [Example 5, Endo-3-(2-phenyl-2-cyclohexen-1-carbonyloxy)-8-sin-propyl-8-azabicyclo-[3.2.1.]-octane] | > 7.7 | 1700 | – |
| CC(C)[N+]1(C(C)C)[C@@H]2CC[C@H]1C[C@@H](OC(=O)CC1=C(c3ccccc3)CCCC1)C2 [2nd formula, 2nd R, 4th R'] | > 5.6 | 67000 | – |
| CC(C)[N+]1(C)[C@@H]2CC[C@H]1C[C@@H](OC(=O)CC1=C(c3ccccc3)CCCC1)C2 (stereo partly drawn) [Example 31, Endo-3-(2-phenyl-1-cyclohexen-1-acetoxy)-8-sin-isopropyl-8-methyl-8-azoniabicyclo-[3.2.1.]-octane iodide] | – | 27 | – |
| CC(C)N1[C@@H]2CC[C@H]1C[C@@H](OC(=O)C1CCCC=C1c1ccccc1)C2 (stereo partly drawn) [Example 1, Endo-3-(2-phenyl-2-cyclohexen-1-carbonyloxy)-8-sin-isopropyl-8-azabicyclo-[3.2.1]-octane] | ~1.5 | 350 | – |
| CC[N+]1(CC(C)C)[C@@H]2CC[C@H]1C[C@@H](OC(=O)C1CCCC=C1c1ccccc1)C2 (some centres unmarked) [1st formula, 1st R, 6th R'] | > 5.7 | 54 | – |
| CCC[N+]1(C)[C@@H]2CC[C@H]1C[C@@H](OC(=O)C1CCCC=C1c1ccccc1)C2 (stereo partly drawn) [Example 25, Endo-3-(2-phenyl-2-cyclohexen-1-carbonyloxy)-8-sin-propyl-8-methyl-8-azoniabicyclo-[3.2.1.]-octane iodide] | – | 3.3 | LD50 [3, 8]: 124 mg/kg; selectivity ratio ([3]; ip): 4.8; LD50 [3, 9]: 600 mg/kg |
| CCCC[N+]1(CCC)[C@@H]2CC[C@H]1C[C@@H](OC(=O)C1CCCC=C1c1ccccc1)C2 (some centres unmarked) [1st formula, 3rd R, 7th R'] | > 5.6 | 190 | – |
| CC(C)N1[C@@H]2CC[C@H]1C[C@@H](OC(=O)CC1=C(c3ccccc3)CCCC1)C2 [Example 7, Endo-3-(2-phenyl-1-cyclohexen-1-acetoxy)-8-sin-isoproyl-8-azabicyclo-[3.2.1.]-octane] | > 7.4 | 30000 | – |
| CN1[C@@H]2CC[C@H]1C[C@@H](OC(=O)C(CO)c1ccccc1)C2 (some centres unmarked) [Atropine sulphate, atropine sulphate, reference compound] | 0.068 | 6.9 | inhibition of PAF-acether induced bronchospasm (in words) ([4]; anestetized guinea pig): fully inactive; inhibition % of PAF-acether induced bronchospasm ([4]; 3 μmol kg^-1): 0%; ED50, inhibition of bronchospasm induced by acetyl choline aerosol [1]: 68 nmol/kg |
| CCC[N+]1(CC(C)C)[C@@H]2CC[C@H]1C[C@@H](OC(=O)C1CCCC=C1c1ccccc1)C2 (some centres unmarked) [1st formula, 3rd R, 6th R'] | > 5.6 | 1200 | – |
| CC(C)[N+]1(C(C)C)[C@@H]2CC[C@H]1C[C@@H](OC(=O)C1CCCC=C1c1ccccc1)C2 (some centres unmarked) [1st formula, 2nd R, 4th R'] | 2.5 | 46 | – |
| CC[N+]1(C(C)C)[C@@H]2CC[C@H]1C[C@@H](OC(=O)C1CCCC=C1c1ccccc1)C2 (stereo partly drawn) [Example 14, Endo-3-(2-phenyl-2-cyclohexen-1-carbonyloxy)-8-sin-isopropyl-8-ethyl-8-azoniabicylo-[3.2.1.]-octane iodide] | – | – | inhibition % of PAF-acether induced bronchospasm ([4]; 0.3 μmol kg^-1): 0%; inhibition % of PAF-acether induced bronchospasm ([4]; 3 μmol kg^-1): 42 ± 14%; ED50, inhibition of bronchospasm induced by acetyl choline aerosol ([1]; listed as 1st formula, 2nd R, R'=CH2CH3): 22 nmol/kg; IC50 [5]: > 100000 nM; IC50 [6]: 29900 nM; LD50 [3, 8]: 91 mg/kg; selectivity ratio ([3]; ip): 3.3; LD50 [3, 9]: 300 mg/kg; IC50 [7]: > 100000 nM |
| CCC[N+]1(CCC)[C@@H]2CC[C@H]1C[C@@H](OC(=O)C1CCCC=C1c1ccccc1)C2 (some centres unmarked) [1st formula, 3rd R, 5th R'] | – | 380 | – |
| CC(C)[N+]1(C)[C@@H]2CC[C@H]1C[C@@H](OC(=O)C1CCCC=C1c1ccccc1)C2 (stereo partly drawn) [Example 13, Endo-3-(2-phenyl-2-cyclohexen-1-carbonyloxy)-8-sin-isopropyl-8-methyl-8-azoniabicyclo-[3.2.1.]-octane iodide] | – | 0.67 | inhibition % of PAF-acether induced bronchospasm ([4]; 0.3 μmol kg^-1): 0%; inhibition % of PAF-acether induced bronchospasm ([4]; 3 μmol kg^-1): 28 ± 13%; IC50 [5]: > 100000 nM; IC50 [6]: 39100 nM; LD50 [3, 8]: 123 mg/kg; selectivity ratio ([3]; ip): 4.1; LD50 [3, 9]: 500 mg/kg; IC50 [7]: > 100000 nM |
| CCCC[N+]1(CC)[C@@H]2CC[C@H]1C[C@@H](OC(=O)C1CCCC=C1c1ccccc1)C2 (some centres unmarked) [1st formula, 1st R, 7th R'] | – | 69 | – |
| CC(C)C[N+]1(C(C)C)[C@@H]2CC[C@H]1C[C@@H](OC(=O)C1CCCC=C1c1ccccc1)C2 (some centres unmarked) [1st formula, 2nd R, 6th R'] | 1.08 | 80 | – |

| Structure (SMILES) | ED50 [1] [µmol/kg] | IC50 [2] [nM] | also measured |
| --- | --- | --- | --- |
| CC[N+]1(C)[C@@H]2CC[C@H]1C[C@@H](OC(=O)C1CCCC=C1c1ccccc1)C2 (stereo partly drawn) [Example 20, Endo-3-(2-phenyl-2-cyclohexen-1-carbonyloxy)-8-sin-ethyl-8-methyl-8-azoniabicyclo-[3.2.1.]-octane iodide] | – | 0.95 | inhibition % of PAF-acether induced bronchospasm ([4]; 0.3 μmol kg^-1): 3 ± 11%; inhibition % of PAF-acether induced bronchospasm ([4]; 3 μmol kg^-1): 36 ± 17%; IC50 [5]: > 100000 nM; IC50 [6]: 7700 nM; LD50 [3, 8]: 126 mg/kg; selectivity ratio ([3]; ip): 2.8; LD50 [3, 9]: 350 mg/kg; IC50 [7]: > 100000 nM |
| CCC[N+]1(C)[C@@H]2CC[C@H]1C[C@@H](OC(=O)CC1=C(c3ccccc3)CCCC1)C2 (some centres unmarked) [2nd formula, 1st R, 5th R'] | > 0.6 | 240 | – |
| CC(C)[N+]1(C)[C@@H]2CC[C@H]1C[C@@H](OC(=O)CC1=C(c3ccccc3)CCCC1)C2 (some centres unmarked) [2nd formula, 1st R, 4th R'] | > 0.6 | – | – |
| CC(C)[N+]1(C)[C@@H]2CC[C@H]1C[C@@H](OC(=O)C(CO)c1ccccc1)C2 (some centres unmarked) [ipratropium bromide, reference compound] | 0.012 | 2 | inhibition of PAF-acether induced bronchospasm (in words) ([4]; anestetized guinea pig): fully inactive; inhibition % of PAF-acether induced bronchospasm ([4]; 3 μmol kg^-1): 7 ± 10%; ED50, inhibition of bronchospasm induced by acetyl choline aerosol [1]: 12 nmol/kg |
| CC[N+]1(C)[C@@H]2CC[C@H]1C[C@@H](OC(=O)CC1=C(c3ccccc3)CCCC1)C2 (stereo partly drawn) [Example 9, Endo-3-(2-phenyl-1-cyclohexen-1-acetoxy)-8-sin-methyl-8-ethyl-8-azoniabicyclo-[3.2.1.]-octane iodide] | ~0.4 | 32 | – |
| CN1[C@@H]2CC[C@H]1C[C@@H](OC(=O)CC1=C(c3ccccc3)CCCC1)C2 [Example 6, Endo-3-(2-phenyl-1-cyclohexen-1-acetoxy)-8-sin-methyl-8-azabicyclo-[3.2.1.]-octane] | ~15 | 4200 | – |
| CCC[N+]1(C(C)C)[C@@H]2CC[C@H]1C[C@@H](OC(=O)C1CCCC=C1c1ccccc1)C2 (some centres unmarked) [1st formula, 3rd R, 4th R'] | > 5.7 | – | – |
| CCC[N+]1(CC)[C@@H]2CC[C@H]1C[C@@H](OC(=O)C1CCCC=C1c1ccccc1)C2 (stereo partly drawn) [Example 26, Endo-3-(2-phenyl-2-cyclohexen-1-carbonyloxy)-8-sin-propyl-8-ethyl-8-azoniabicyclo-[3.2.1.]-octane iodide] | 0.228 | – | – |
| C[N+]1(C)[C@@H]2CC[C@H]1C[C@@H](OC(=O)CC1=C(c3ccccc3)CCCC1)C2 [Example 8, Endo-3-(2-phenyl-1-cyclohexen-1-acetoxy)-8,8-dimethyl-8-azoniabicyclo-[3.2.1.]-octane iodide] | – | 1.1 | LD50 [3, 8]: 45 mg/kg; selectivity ratio ([3]; ip): 18; LD50 [3, 9]: 800 mg/kg |
| CC[N+]1(CC)[C@@H]2CC[C@H]1C[C@@H](OC(=O)C1CCCC=C1c1ccccc1)C2 (stereo partly drawn) [Example 21, Endo-3-(2-phenyl-2-cyclohexene-1-carbonyloxy)-8,8-di-ethyl-azoniabicyclo-[3.2.1.]-octane iodide] | 0.029 | 0.03 | ED50 ([4]; Cavia porcellus, anestetized guinea pig): 0.8 µmol/kg; inhibition % of PAF-acether induced bronchospasm ([4]; 0.3 μmol kg^-1): 43 ± 16%; inhibition % of PAF-acether induced bronchospasm ([4]; 3 μmol kg^-1): 64 ± 16%; IC50 [5]: > 100000 nM; IC50 [6]: 2400 nM; LD50 [3, 8]: 107 mg/kg; selectivity ratio ([3]; ip): 7.5; LD50 [3, 9]: 800 mg/kg; IC50 [7]: > 100000 nM |
| CC[N+]1(C(C)C)[C@@H]2CC[C@H]1C[C@@H](OC(=O)CC1=C(c3ccccc3)CCCC1)C2 (stereo partly drawn) [Example 32, Endo-3-(2-phenyl-1-cyclohexen-1-acetoxy)-8-sin-isopropyl-8-ethyl-8-azoniabicyclo-[3.2.1.]-octane iodide] | > 5.7 | 9000 | – |
| CC[N+]1(C(C)C)[C@@H]2CC[C@H]1C[C@@H](OC(=O)C1CCCC=C1c1ccccc1)C2 (some centres unmarked) [1st formula, 1st R, 4th R'] | – | – | ED50, inhibition of bronchospasm induced by acetyl choline aerosol [1]: ~ 5900 nmol kg^-1 |
| CCCC[N+]1(C(C)C)[C@@H]2CC[C@H]1C[C@@H](OC(=O)C1CCCC=C1c1ccccc1)C2 (some centres unmarked) [1st formula, 2nd R, 7th R'] | 0.99 | 45 | – |
| CCC[N+]1(C(C)C)[C@@H]2CC[C@H]1C[C@@H](OC(=O)CC1=C(c3ccccc3)CCCC1)C2 (some centres unmarked) [2nd formula, 2nd R, 5th R'] | > 5.6 | 8500 | – |
| CCN1[C@@H]2CC[C@H]1C[C@@H](OC(=O)C1CCCC=C1c1ccccc1)C2 (stereo partly drawn) [Example 4, Endo-3-(2-phenyl-2-cyclohexen-1-carbonyloxy)-8-sin-ethyl-8-azabicyclo-[3.2.1.]-octane] | 6.12 | 280 | – |
